Assay results taken from ChEMBL document CHEMBL1201862, “PubChem BioAssay data set” (2004).
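The compound was tested at five concentrations on cells cultured in 96-well plates, with a 48-hour exposure period. GI50 = concentration required for 50% inhibition of growth.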 Activity calls are given as the source filed them. Cut-off read from the data, not from the text of the source: active = GI50 up to about 1.1 µM and inactive = higher.

What was measured:
Experiment in all cases: growth of human tumour cells (NCI), 48 h
[1] = tested on: NCI-H23
[2] = tested on: SW-620
[3] = tested on: HT-29
[4] = tested on: HOP-62
[5] = tested on: A549
[6] = tested on: NCI/ADR-RES
[7] = tested on: OVCAR-3
[8] = tested on: COLO 205
[9] = tested on: MDA-MB-231
[10] = tested on: NCI-H226
[11] = tested on: EKVX
[12] = tested on: SK-MEL-5
[13] = tested on: OVCAR-5
[14] = tested on: SK-MEL-28
[15] = tested on: 786-0
[16] = tested on: NCI-H460
[17] = tested on: SF-539
[18] = tested on: NCI-H522
[19] = tested on: IGROV-1
[20] = tested on: OVCAR-8
[21] = tested on: UO-31
[22] = tested on: HCT-15
[23] = tested on: MOLT-4
[24] = tested on: CCRF-CEM
[25] = tested on: CAKI-1
[26] = tested on: ACHN
[27] = tested on: T47D
[28] = tested on: RXF 393
[29] = tested on: K562
[30] = tested on: DU-145
[31] = tested on: BT-549
[32] = tested on: SF-268
[33] = tested on: Hs-578T
[34] = tested on: HCT-116
[35] = tested on: SNB-75
[36] = tested on: HCC 2998
[37] = tested on: Malme-3M
[38] = tested on: UACC-62
[39] = tested on: KM12
[40] = tested on: MDA-MB-435
[41] = tested on: SK-MEL-2
[42] = tested on: UACC-257
[43] = tested on: TK-10
[44] = tested on: U-251
[45] = tested on: M14
[46] = tested on: OVCAR-4
[47] = tested on: SN12C
[48] = tested on: SF-295
[49] = tested on: A498
[50] = tested on: RPMI-8226
[51] = tested on: MCF7
[52] = tested on: SNB-19
[53] = tested on: LOX IMVI
[54] = tested on: HOP-92
[55] = tested on: PC-3
[56] = tested on: SK-OV-3
[57] = tested on: SR

Measured: GI50

CC(C)(C)c1ccc(O)c(C(O)c2cccnc2)c1 (centres undefined)
72.1 µM: [22]
inactive: [1] > 100 µM | [2] > 100 µM | [3] > 100 µM | [4] > 100 µM | [5] > 100 µM | [6] 94.6 µM | [7] > 100 µM | [8] > 100 µM | [9] > 100 µM | [10] > 100 µM | [11] > 100 µM | [12] 35 µM | [13] > 100 µM | [14] > 100 µM | [15] > 100 µM | [16] > 100 µM | [17] > 100 µM | [18] > 100 µM | [19] > 100 µM | [20] > 100 µM | [21] > 100 µM | [23] > 100 µM | [24] 96.6 µM | [25] > 100 µM | [26] > 100 µM | [27] 5.87 µM | [28] > 100 µM | [29] 81.5 µM | [30] > 100 µM | [31] > 100 µM | [32] > 100 µM | [33] > 100 µM | [34] > 100 µM | [35] 57 µM | [36] 76 µM | [37] > 100 µM | [38] 16.6 µM | [39] > 100 µM

CN1C(=O)C(=CNc2ccc(Cl)cc2Cl)C(=O)N(C)C1=O
> 100 µM: [22]
inactive: [1] > 100 µM | [2] > 100 µM | [40] > 100 µM | [41] > 100 µM | [3] > 100 µM | [4] > 100 µM | [5] > 100 µM | [6] > 100 µM | [7] > 100 µM | [8] > 100 µM | [9] > 100 µM | [42] > 100 µM | [43] > 100 µM | [10] > 100 µM | [11] > 100 µM | [12] > 100 µM | [13] > 100 µM | [44] > 100 µM | [15] > 100 µM | [16] > 100 µM | [45] > 100 µM | [17] > 100 µM | [18] > 100 µM | [19] > 100 µM | [46] > 100 µM | [47] > 100 µM | [20] 17.9 µM | [48] > 100 µM | [49] > 100 µM | [50] > 100 µM | [21] > 100 µM | [51] > 100 µM | [23] 66.5 µM | [24] 13.9 µM | [25] > 100 µM | [52] > 100 µM | [26] > 100 µM | [27] > 100 µM | [28] > 100 µM | [53] > 100 µM | [29] > 100 µM | [54] > 100 µM | [31] > 100 µM | [32] > 100 µM | [33] > 100 µM | [34] > 100 µM | [55] > 100 µM | [56] > 100 µM | [35] > 100 µM | [36] > 100 µM | [37] > 100 µM | [38] > 100 µM | [57] > 100 µM | [39] > 100 µM
